Patent US20040152659A1, “Method for the treatment of parkinson's disease comprising administering an A1A2a receptor dual antagonist” (Fujisawa Pharmaceutical Co. Ltd., priority 1999, published 2004)

Experiments:
[1] = tested on: Male Wistar rats; test: Test 3 Impaired-memory ameliorating action (scopolamine-impaired retention trial); format: in vivo; details: scopolamine 1 mg/kg i.p. + test compound 1 mg/kg i.p. immediately after acquisition trial, scopolamine + control 80.2 ± 34.9, intact 300 ± 0
Experimental: Test 3 Impaired-Memory Ameliorating Action
Male Wistar rats were serially subjected to an acclimation trial, an acquisition trial 1 hour after the acclimation trial, and a retention trial 24 hours after the acquisition trial. Scopolamine 1 mg/kg was intraperitoneally administered 30 minutes before the acquisition trial. The test compound was intraperitoneally administered immediately after the acquisition trial.

[2] = tested on: male SD rats; test: Test 2 Anxiolytic action (social interaction test); format: in vivo; details: 0.32 mg/kg oral 1 h before test, 15 min observation, control 51.3 ± 6.0
Experimental: Two male SD rats acclimated for 1 week and handled once were used in sets. One hour before beginning of the test, both rats in each set were orally dosed with the same amount of the test compound or the vehicle. Immediately thereafter, both rats were placed in a new environment where territories were to be established as yet and their behaviors were monitored and recorded over 15 minutes. After the test, the records were analyzed and evaluated in terms of the total duration of social interaction (social interaction time) (observation items: sniffing, following, grooming, kicking, boxing, biting, wrestling, crawling under or over the partner).

[3] = target: T1, human recombinant A2a receptors (Homo sapiens, UniProt P29274); test: Estimation of Adenosine A2a-receptor antagonizing activity ([3H]-CGS21680 binding, CHO cell membrane fractions); details: at a concentration of 1.0×10^−6 M; [3H]-CGS21680 15 nM; read-out: inhibition rate for Adenosine A2a-receptor
T1 construct: expressed in transfected cells; host or cells: CHO cells
Source text: (§1) The existence and intensity of “adenosine A1-receptor antagonizing activity” and/or “adenosine A2a-receptor antagonizing activity” can be ascertained and assessed typically by the following test method. The intensity of adenosine A1-receptor antagonizing action and of adenosine A2a-receptor antagonizing action as referred to in the appended claims also means the value found by the method described below.
(§2) “Estimation of Adenosine A1 and A2a-receptor antagonizing activity”
(§3) Membrane fractions prepared from the CHO cells which transfected stably with human recombinant A1 or A2a receptors were incubated for 1 hr at 25° C. with test compounds, ADA, 50 mM Tris buffer and [3H]-DPCPX (final 4 nM) or [3H]-CGS21680 (final 15 nM), respectively. Reaction mixtures were filtrated with 96-well harvestor to separate free ligands from bound fraction using GF/C filter. Radioactivity of the dried filter was counted, and specific binding of each labelled rigands was calculated.

[4] = target: T2, human recombinant A1 receptors (Homo sapiens, UniProt P30542); test: Estimation of Adenosine A1-receptor antagonizing activity ([3H]-DPCPX binding, CHO cell membrane fractions)
T2 construct: expressed in transfected cells; host or cells: CHO cells
T2 sequence (P30542 1-326): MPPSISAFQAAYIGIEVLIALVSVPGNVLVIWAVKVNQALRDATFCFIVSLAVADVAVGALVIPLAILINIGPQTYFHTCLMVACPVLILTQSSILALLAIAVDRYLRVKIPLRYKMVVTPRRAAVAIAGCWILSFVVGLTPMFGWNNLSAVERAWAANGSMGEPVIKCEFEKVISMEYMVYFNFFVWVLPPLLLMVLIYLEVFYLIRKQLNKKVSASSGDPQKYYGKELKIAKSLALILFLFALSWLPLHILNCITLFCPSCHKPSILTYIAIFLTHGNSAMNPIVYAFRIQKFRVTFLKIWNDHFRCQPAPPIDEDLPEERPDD
Source text: as §1, §2, §3

[5] = tested on: Mice; test: Test 1 Anticataleptic action (haloperidol-induced catalepsy); format: in vivo; details: 1 mg/kg oral, 30 min before haloperidol 0.32 mg/kg i.p., observed 30 min later, control 100
Experimental: Test 1 Anticataleptic Action
Mice were orally dosed with the test compound as a suspention in 0.5% of methyl cellulose and, 30 minutes later, intraperitoneally dosed with 0.32 mg/kg of haloperidol.

T1 sequence (P29274 whole entry): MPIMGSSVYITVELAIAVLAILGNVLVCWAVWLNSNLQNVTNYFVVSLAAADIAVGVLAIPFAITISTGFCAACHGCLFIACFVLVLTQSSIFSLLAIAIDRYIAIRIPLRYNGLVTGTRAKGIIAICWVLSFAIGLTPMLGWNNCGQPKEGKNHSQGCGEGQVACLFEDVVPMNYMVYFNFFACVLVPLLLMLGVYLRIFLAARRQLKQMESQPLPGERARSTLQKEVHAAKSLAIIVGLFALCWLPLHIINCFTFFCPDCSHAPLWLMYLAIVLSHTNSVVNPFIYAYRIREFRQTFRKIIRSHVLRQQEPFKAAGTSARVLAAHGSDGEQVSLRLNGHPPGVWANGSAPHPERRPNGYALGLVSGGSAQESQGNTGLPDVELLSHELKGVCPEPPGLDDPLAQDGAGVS

inhibition at 1 µM [3]: ≥ 80%
affinity for the adenosine A1-receptor relative to affinity for the adenosine A2a receptor ([4]; A1 affinity as a multiple of A2a affinity): 36 times
inhibition at 1 µM ([4]; at a concentration of 1.0×10^−6 M, [3H]-DPCPX 4 nM, read-out: inhibition rate for Adenosine A1-receptor): ≥ 80%
Structure (SMILES): O=c1ccc(-c2c(-c3ccccc3)nn3ccccc23)nn1Cc1nccs1 [(A), 3-[2-(Thiazol-2-ylmethyl)-3-oxo-2,3-dihydropyridazin-6-yl]-2-phenylpyrazolo[1,5-a]pyridine]
Reaction latency in retention trial [1]: 215.6 ± 35.0 s
Social interaction time [2]: 90.5 ± 12.5 s
Incidence of catalepsy [5]: 20%
